Measurements reported in patent publication US20230348540A1, “Viral multimeric peptide constructs for targeting PDZ domains” (University of Copenhagen, priority 2020, published 2023).
One block for each molecule: values may come before it. Peptide text beside a SMILES is read from it. * marks the point of attachment. Biotin = O=C1N[C@H]2[C@H](CS[C@H]2CCCCC(=O)*)N1; Ahx = NCCCCCC(=O)O

How the values were obtained:
[1] = SEC-MALS of peptides (oligomeric state); assay type: physicochemical; conditions: 50 μL of 1000 μM peptide, Example 7
Experimental: Size exclusion chromatography Multi angle light scattering (SEC-MALS): was done using an Agilent HPLC equipped with a Wyatt MALS setup, where 50 μL of 1000 μM, of indicated peptide, was loaded onto a Superdex200 Increase 10/300 column. Resulting data was analyzed and molecular weight was calculated using the ASTRA® software package, data was plotted using GraphPad Prism 8.3.

PICK1 [2] = biological target: T1, PICK1 (Rattus norvegicus, UniProt Q9EP80); experiment: Fluorescence Polarization for PICK1 (Example 8); assay type: binding; conditions: in words, FIG. 17
T1 construct: Full length rat PICK1 (pET41) was prepared as described earlier; inferred from pET41 and glutathione-Sepharose capture) (N, cleaved yes); made in house; host or cells: E. coli BL21-DE3-pLysS
T1 sequence (Q9EP80 whole entry): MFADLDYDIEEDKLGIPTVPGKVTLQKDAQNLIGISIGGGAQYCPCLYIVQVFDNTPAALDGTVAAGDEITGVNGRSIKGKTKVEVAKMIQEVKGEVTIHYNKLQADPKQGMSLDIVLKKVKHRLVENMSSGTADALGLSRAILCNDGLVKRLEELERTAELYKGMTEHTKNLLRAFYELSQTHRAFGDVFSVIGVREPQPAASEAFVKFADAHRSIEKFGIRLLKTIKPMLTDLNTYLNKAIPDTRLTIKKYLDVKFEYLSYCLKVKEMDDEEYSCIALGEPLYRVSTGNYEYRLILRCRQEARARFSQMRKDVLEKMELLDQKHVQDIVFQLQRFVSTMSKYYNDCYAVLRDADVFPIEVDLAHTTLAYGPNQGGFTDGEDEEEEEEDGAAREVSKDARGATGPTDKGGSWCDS
Experimental: The plates were incubated 30-40 min on ice and the fluorescence polarization was measured on an Omega POLARstar plate (BMG LABTECH) reader using excitation filter at 485 nm and long pass emission filter at 520 nm. The data was plotted using GraphPad Prism 8.3, and fitted to the ‘One site—Fit’ Ki competition curve, to extract apparent KI values.

PSD-95 PDZ12 [3] = biological target: T2, PSD-95 PDZ12 (Homo sapiens, UniProt P78352); experiment: Fluorescence polarization for PSD-95 PDZ12 (Example 8); assay type: binding; conditions: in words, FIG. 18
T2 construct: Fluorescence polarization for PSD-95 (FL and PDZ12)
T2 sequence (P78352 61-249 limits assumed): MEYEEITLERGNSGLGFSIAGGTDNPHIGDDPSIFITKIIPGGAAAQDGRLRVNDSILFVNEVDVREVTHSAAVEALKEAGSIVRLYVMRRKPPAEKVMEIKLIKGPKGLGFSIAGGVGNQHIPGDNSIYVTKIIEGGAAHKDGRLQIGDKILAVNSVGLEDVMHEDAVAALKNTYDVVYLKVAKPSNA
Experimental: Fluorescence polarization for PSD-95 (FL and PDZ12): Fluorescence polarization was carried out in competition mode at a fixed concentration of protein (150 nM) and tracer (5[…], 5 nM), against an increasing concentration of unlabeled peptide.

FL-PSD-95 = biological target: T3, FL-PSD-95 (Homo sapiens, UniProt P78352); experiment: Size exclusion chromatography of PSD-95 in absence or presence of peptide; conditions: 10 μM FL-PSD-95, 50 μM peptide, Example 8
T3 construct: TRX-6xHis-hPSD95 1-724 encoding plasmid; TRX (thioredoxin) (N); 6xHis (N); made in house; host or cells: E. coli BL21-DE3-pLysS
T3 sequence (P78352 whole entry): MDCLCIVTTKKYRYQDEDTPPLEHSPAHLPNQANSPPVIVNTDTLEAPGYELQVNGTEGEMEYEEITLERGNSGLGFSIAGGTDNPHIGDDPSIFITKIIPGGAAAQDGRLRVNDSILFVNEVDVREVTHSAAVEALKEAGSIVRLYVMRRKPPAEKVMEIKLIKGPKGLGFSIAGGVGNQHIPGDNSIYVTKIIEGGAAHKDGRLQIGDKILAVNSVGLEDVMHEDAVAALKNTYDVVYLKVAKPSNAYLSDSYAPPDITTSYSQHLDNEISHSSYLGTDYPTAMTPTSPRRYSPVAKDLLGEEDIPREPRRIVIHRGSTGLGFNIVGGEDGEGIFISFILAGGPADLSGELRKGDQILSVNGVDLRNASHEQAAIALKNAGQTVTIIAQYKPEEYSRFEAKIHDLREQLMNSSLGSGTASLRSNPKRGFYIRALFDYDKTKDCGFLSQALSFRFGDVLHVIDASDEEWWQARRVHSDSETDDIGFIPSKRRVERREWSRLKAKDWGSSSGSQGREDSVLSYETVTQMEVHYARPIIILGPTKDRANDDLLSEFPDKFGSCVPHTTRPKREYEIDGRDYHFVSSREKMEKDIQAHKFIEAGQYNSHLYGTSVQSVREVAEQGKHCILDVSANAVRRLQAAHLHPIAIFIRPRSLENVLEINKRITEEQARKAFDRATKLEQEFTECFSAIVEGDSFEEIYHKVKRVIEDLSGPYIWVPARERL
Experimental: (§1) Size exclusion chromatography: was done using a Äkta purifier with a Superdex200 Increase 10/300 column, where, 500 μL of 30 μM PICK1 or 200 μL 10 uM of FL-PSD-95 in absence or presence of peptides was loaded. Absorbance profile was measured at 280 nm and plotted against elution volume using Graph Pad Prism 8.3.

PSD-95 PDZ12 [4] = biological target: T2, PSD-95 PDZ12; experiment: Confocal microscopy on liquid-liquid phase separation droplets, PSD-95 PDZ1-2 (Example 8); conditions: 100 μM PSD-95 PDZ1-2
Experimental: Images were acquired using averaging of 4 line scans and 12-bit. The liquid-liquid phase separation droplets were prepared in the desired concentration in Phosphate buffered Saline supplemented with 1 mM TCEP (PBS-TCEP) and added to an untreated lab tec (155411PK) and imaged after being allowed to settle for 5 min at 25° C. For samples containing fluorescent protein or peptide the content of fluorescent protein or peptide was kept at 1% of indicated total protein or peptide concentration.

PICK1 [5] = biological target: T1, PICK1; experiment: Size exclusion chromatography of PICK1 in absence or presence of peptide; conditions: 30 μM PICK1, 50 μM peptide, Example 8
Experimental: Absorbance profiles were measured at 280 nm and plotted against elution volume using Graph Pad Prism 8.3.
as §1

PICK1 [6] = biological target: T1, PICK1; experiment: Fluorescence polarization competition of HWLKV substitution peptide libraries (Example 6); assay type: binding; conditions: relative to HWLKV, tracer 5FAM-HWLKV 20 nM, FIG. 7, in words
Experimental: Fluorescence polarization: Fluorescence polarization was carried out in competition mode at a fixed concentration of protein and tracer (5[…], 20 nM), against an increasing concentration of indicated unlabeled peptide. The plate was incubated 20 min on ice in a black half-area Corning Black non-binding surface 96-well plate and the fluorescence polarization was measured directly on a Omega POLARstar plate reader using excitation filter at 488-nm and long pass emission filter at 535-nm.

PSD-95 = biological target: T4, PSD-95 (Homo sapiens, UniProt P78352); experiment: SDS-PAGE sedimentation assay; conditions: 3 μM PSD-95, 12 μM or 36 μM peptide
T4 construct: TRX-6xHis-hPSD95 1-724 encoding plasmid; TRX (thioredoxin) (N); 6xHis (N); made in house; host or cells: E. coli BL21-DE3-pLysS
T4 sequence (P78352 whole entry): as above
Experimental: SDS-PAGE sedimentation assay: Proteins were mixed in the desired concentration in PBS-TCEP and equilibrated for 10 min before centrifugation at 20 000 g for 15 min at 25° C. using a temperature controlled table top centrifuge. Following centrifugation the supernatant was collected and the pellet was re-suspended in an equal amount of PBS-TCEP, usually 50 μL. To ensure proper resuspension of LLPS, the samples were vortexed before addition of SDS buffer followed by boiling at 95° C. for 5 min. Supernatant and pellet fractions were run on any kD™ Mini-PROTEAN® TGX™ Precast Protein Gels (10 or 15 wells, BioRad 4569036 or 4569033). Gels were imaged using a Li-COR Odyssey gel scanner and band intensities were analyzed using ImageJ.

oligomeric configuration (SEC-MALS) [1]: hexameric configuration
binding affinity to PICK1 as compared to the dimeric GCN4p1-GS4-HWLKV (PICK1 [2]): superior binding affinity
Molecule: CC[C@H](C)[C@H](NC(=O)[C@H](CCC(=O)O)NC(=O)CNC(=O)CCCCCNC(=O)CCCC[C@@H]1SC[C@@H]2NC(=O)N[C@@H]21)C(=O)N[C@@H](C)C(=O)N[C@@H](CCCCN)C(=O)N[C@@H](CO)C(=O)N[C@@H](CC(C)C)C(=O)N[C@@H](CCCCN)C(=O)N[C@@H](CCC(=O)O)C(=O)N[C@H](C(=O)N[C@@H](C)C(=O)N[C@@H](CCCCN)C(=O)N[C@@H](CO)C(=O)N[C@@H](CC(C)C)C(=O)N[C@@H](CCCCN)C(=O)N[C@@H](CCC(=O)O)C(=O)N[C@H](C(=O)N[C@@H](C)C(=O)N[C@@H](Cc1c[nH]c2ccccc12)C(=O)N[C@@H](CO)C(=O)N[C@@H](CC(C)C)C(=O)N[C@@H](CCCCN)C(=O)N[C@@H](CCC(=O)O)C(=O)N[C@H](C(=O)N[C@@H](C)C(=O)N[C@@H](CCCCN)C(=O)N[C@@H](CO)C(=O)N[C@@H](CC(C)C)C(=O)N[C@@H](CCCCN)C(=O)NCC(=O)NCC(=O)NCC(=O)NCC(=O)N[C@@H](CO)C(=O)N[C@@H](Cc1c[nH]cn1)C(=O)N[C@@H](Cc1c[nH]c2ccccc12)C(=O)N[C@@H](CC(C)C)C(=O)N[C@@H](CCCCN)C(=O)N[C@H](C(=O)O)C(C)C)[C@@H](C)CC)[C@@H](C)CC)[C@@H](C)CC [CC-Hex2-GS4-HWLKV] ({Biotin-Ahx}-GEIAKSLKEIAKSLKEIAWSLKEIAKSLKGGGGSHWLKV-OH; C-terminus assumed)

binding affinity towards PSD95 PDZ1-2 (PSD-95 PDZ12 [3]): high binding affinity
Molecule: CC[C@H](C)[C@H](NC(=O)[C@H](CCC(=O)O)NC(=O)CNC(=O)CCCCCNC(=O)CCCC[C@@H]1SC[C@@H]2NC(=O)N[C@@H]21)C(=O)N[C@@H](C)C(=O)N[C@@H](CCCCN)C(=O)N[C@@H](CO)C(=O)N[C@@H](CC(C)C)C(=O)N[C@@H](CCCCN)C(=O)N[C@@H](CCC(=O)O)C(=O)N[C@H](C(=O)N[C@@H](C)C(=O)N[C@@H](CCCCN)C(=O)N[C@@H](CO)C(=O)N[C@@H](CC(C)C)C(=O)N[C@@H](CCCCN)C(=O)N[C@@H](CCC(=O)O)C(=O)N[C@H](C(=O)N[C@@H](C)C(=O)N[C@@H](Cc1c[nH]c2ccccc12)C(=O)N[C@@H](CO)C(=O)N[C@@H](CC(C)C)C(=O)N[C@@H](CCCCN)C(=O)N[C@@H](CCC(=O)O)C(=O)N[C@H](C(=O)N[C@@H](C)C(=O)N[C@@H](CCCCN)C(=O)N[C@@H](CO)C(=O)N[C@@H](CC(C)C)C(=O)N[C@@H](CCCCN)C(=O)NCC(=O)NCC(=O)NCC(=O)NCC(=O)N[C@@H](CO)C(=O)N[C@H](C(=O)N[C@@H](CCC(=O)O)C(=O)N[C@H](C(=O)N[C@@H](CC(=O)O)C(=O)N[C@H](C(=O)O)C(C)C)[C@@H](C)O)[C@@H](C)CC)[C@@H](C)CC)[C@@H](C)CC)[C@@H](C)CC [CC-Hex2-GS4-IETDV] ({Biotin-Ahx}-GEIAKSLKEIAKSLKEIAWSLKEIAKSLKGGGGSIETDV-OH; C-terminus assumed)
formation of higher order oligomers of PSD-95 (SEC) (FL-PSD-95): ability to form higher order oligomers of PSD-95

binding affinity towards PSD95 PDZ1-2 (PSD-95 PDZ12 [3]): high binding affinity
threshold for LLPS formation of PSD-95 PDZ1-2 versus dimeric GCN4p1-GS4-RRTTPV (PSD-95 PDZ12 [4]): lowered thresholds for LLPS formation
Molecule: CC[C@H](C)[C@H](NC(=O)[C@H](CCC(=O)O)NC(=O)CNC(=O)CCCCCNC(=O)CCCC[C@@H]1SC[C@@H]2NC(=O)N[C@@H]21)C(=O)N[C@@H](C)C(=O)N[C@@H](CCCCN)C(=O)N[C@@H](CO)C(=O)N[C@@H](CC(C)C)C(=O)N[C@@H](CCCCN)C(=O)N[C@@H](CCC(=O)O)C(=O)N[C@H](C(=O)N[C@@H](C)C(=O)N[C@@H](CCCCN)C(=O)N[C@@H](CO)C(=O)N[C@@H](CC(C)C)C(=O)N[C@@H](CCCCN)C(=O)N[C@@H](CCC(=O)O)C(=O)N[C@H](C(=O)N[C@@H](C)C(=O)N[C@@H](Cc1c[nH]c2ccccc12)C(=O)N[C@@H](CO)C(=O)N[C@@H](CC(C)C)C(=O)N[C@@H](CCCCN)C(=O)N[C@@H](CCC(=O)O)C(=O)N[C@H](C(=O)N[C@@H](C)C(=O)N[C@@H](CCCCN)C(=O)N[C@@H](CO)C(=O)N[C@@H](CC(C)C)C(=O)N[C@@H](CCCCN)C(=O)NCC(=O)NCC(=O)NCC(=O)NCC(=O)N[C@@H](CO)C(=O)N[C@@H](CCCNC(=N)N)C(=O)N[C@@H](CCCNC(=N)N)C(=O)N[C@H](C(=O)N[C@H](C(=O)N1CCC[C@H]1C(=O)N[C@H](C(=O)O)C(C)C)[C@@H](C)O)[C@@H](C)O)[C@@H](C)CC)[C@@H](C)CC)[C@@H](C)CC [CC-Hex2-GS4-RRTTPV] ({Biotin-Ahx}-GEIAKSLKEIAKSLKEIAWSLKEIAKSLKGGGGSRRTTPV-OH; C-terminus assumed)
formation of higher order oligomers of PSD-95 (SEC) (FL-PSD-95): Formation of higher order oligomers of PSD-95 was also observed

oligomeric configuration (SEC-MALS) [1]: trimeric configuration
Molecule: CC[C@H](C)[C@H](NC(=O)[C@H](C)NC(=O)[C@H](C)NC(=O)[C@H](CC(C)C)NC(=O)[C@H](CCC(=O)O)NC(=O)[C@H](Cc1c[nH]c2ccccc12)NC(=O)[C@H](CCCCN)NC(=O)[C@@H](NC(=O)[C@H](C)NC(=O)[C@H](C)NC(=O)[C@H](CC(C)C)NC(=O)[C@H](CCC(=O)O)NC(=O)[C@H](CCCCN)NC(=O)[C@H](CCCCN)NC(=O)[C@@H](NC(=O)[C@H](C)NC(=O)[C@H](C)NC(=O)[C@H](CC(C)C)NC(=O)[C@H](CCC(=O)O)NC(=O)[C@H](CCC(N)=O)NC(=O)[C@H](CCCCN)NC(=O)[C@@H](NC(=O)[C@H](C)NC(=O)[C@H](C)NC(=O)[C@H](CC(C)C)NC(=O)[C@H](CCC(=O)O)NC(=O)CNC(=O)CCCCCNC(=O)CCCC[C@@H]1SC[C@@H]2NC(=O)N[C@@H]21)[C@@H](C)CC)[C@@H](C)CC)[C@@H](C)CC)C(=O)N[C@@H](CCCCN)C(=O)N[C@@H](CCC(N)=O)C(=O)NCC(=O)NCC(=O)NCC(=O)NCC(=O)N[C@@H](CO)C(=O)N[C@@H](Cc1c[nH]cn1)C(=O)N[C@@H](Cc1c[nH]c2ccccc12)C(=O)N[C@@H](CC(C)C)C(=O)N[C@@H](CCCCN)C(=O)N[C@H](C(=O)O)C(C)C [CC-Tet-GS4-HWLKV] ({Biotin-Ahx}-GELAAIKQELAAIKKELAAIKWELAAIKQGGGGSHWLKV-OH; C-terminus assumed)
formation of higher order oligomers of PICK1 (SEC) (PICK1 [5]): ability to form higher order oligomers of PICK1

Fold affinity change of combinatorial peptide library (PICK1 [6]): optimal 4-mer sequences
Molecule: EIRV (DAT C5 VARIANT)

binding affinity to PICK1 as compared to the dimeric GCN4p1-GS4-HWLKV (PICK1 [2]): superior binding affinity
Molecule: GEIAKSLKEIAKSLKEIAWSLKEIAKSLKGGGGSNSVRV (CC-Hex2-GS4-NSVRV)

Fold affinity change of combinatorial peptide library (PICK1 [6]): optimal 3-mer sequences
Molecule: IIV [DAT-C5 variant]

Fold affinity change of combinatorial peptide library (PICK1 [6]): optimal 3-mer sequences
Molecule: IRV [DAT-C5 variant]

Fold affinity change of combinatorial peptide library (PICK1 [6]): optimal 5-mer sequences
Molecule: NSVRV (DAT C5 VARIANT)

Molecule: SNTANRRTTPV (RRTTPV monomer)
distribution of PSD-95 between supernatant and pellet (PSD-95): the majority of PSD-95 is found in the supernatant

Fold affinity change of combinatorial peptide library (PICK1 [6]): optimal 5-mer sequences
Molecule: TSIRV (DAT C5 VARIANT)

Fold affinity change of combinatorial peptide library (PICK1 [6]): optimal 4-mer sequences
Molecule: YIIV (DAT C5 VARIANT)
